Where two headings read alike, the source gives them in different places. Marks after values point to notes of the source that are not given here.
What was measured:
[1] = Noncompartmental plasma pharmacokinetics in phase 1b study; type: in vivo, human; settings: for Tmax / half-life / AUC(0-t) / Cmax / AUC(0-inf) / Vd/F: human, plasma; for Cmax: geometric mean (CV%); for Vd/F: read-out: VZ/F
Procedure: PK analyses were conducted on patients who received at least one dose of galunisertib and had PK samples collected. The PK parameters for galunisertib were calculated by standard noncompartmental methods of analysis using Phoenix™ WinNonlin® 6.4 (Pharsight, A Certara Company; Princeton, NJ, USA). The maximum plasma concentration, time to maximum plasma concentration (tmax), area under the plasma concentration versus time curve from time zero to the last time point with a measurable concentration, and area under the plasma concentration-time curve from time zero to infinity, half-life (t1/2), apparent total body clearance (CL/F), and apparent volume of distribution during the terminal phase (Vz/F) that could be calculated from the data were reported for galunisertib from the noncompartmental PK analyses. Sorafenib PK profiles on day 22 (sorafenib monotherapy) were compared with sorafenib PK profiles on day 14 (administration of galunisertib in combination with sorafenib) within the same patient and in each cohort.

[2] = system: advanced HCC; parameters: method as in earlier work; settings: galunisertib monotherapy, cited from earlier work
[3] = system: Japanese patients with unresectable hepatocellular carcinoma; assay: Safety and tolerability (DLTs, TEAEs, SAEs, QTc) in phase 1b study; settings: for 14 days (then 14 days rest), in combination with sorafenib
Procedure: All eligible patients in this phase 1b, open-label, dose-escalation, multicenter, nonrandomized study received oral administration of galunisertib (160 mg or 300 mg/day) in combination with oral administration of sorafenib 800 mg/day. A cycle was defined as 28 days. Galunisertib was administered at either 80 mg twice daily or 150 mg twice daily for 14 days, followed by 14 days of galunisertib treatment rest, and sorafenib 400 mg twice daily for 28 days. Patients continued treatment until a discontinuation criterion was met.
The DLT evaluation period was 28 days after the first dose. Tolerability was defined as a dose where 2 or fewer of 6 patients experience DLTs. A minimum of 3 patients were planned to be enrolled in the galunisertib 160 mg/day plus sorafenib group, and a minimum of 6 patients were planned to be enrolled in the galunisertib 300 mg/day plus sorafenib group. […]
The sample size was determined based on the study design to evaluate the DLTs, safety, and tolerability of galunisertib in two sequential study treatment groups. […] Patients without a DLT who discontinued the study in cycle 1 due to disease progression, or discontinued sorafenib in cycle 1 for reasons other than disease progression, were assessed for appropriateness of DLT evaluation per Efficacy and Safety Evaluation Committee recommendations. […]

[4] = system: HCC; parameters: method as in PMID 18650514; settings: sorafenib arm, global SHARP study; cited from earlier work
[5] = po, Galunisertib 160 mg/day plus sorafenib, Cycle 1 Day 14, geometric mean (CV%), n = 3
[6] = po, Galunisertib 300 mg/day plus sorafenib, Cycle 1 Day 14, geometric mean (CV%), n = 3

## Cc1cccc(-c2nn3c(c2-c2ccnc4ccc(C(N)=O)cc24)CCC3)n1 [Galunisertib, galunisertib]
[1]; Galunisertib 160 mg/day plus sorafenib, Cycle 1 Day 14, geometric mean (CV%), n = 3
  CL/F: 10.1 (4)^d L/h
[1]; Galunisertib 160 mg/day plus sorafenib, Cycle 1 Day 14, geometric mean (CV%), n = 3, listed as galunisertib
  CL/F: 10.1 L/h
[1]; Galunisertib 300 mg/day plus sorafenib, Cycle 1 Day 14, geometric mean (CV%), n = 3
  CL/F: 13.5 (9)^d L/h
[1]; Galunisertib 300 mg/day plus sorafenib, Cycle 1 Day 14, geometric mean (CV%), n = 3, listed as galunisertib
  CL/F: 13.5 L/h
[1]; oral, both galunisertib doses (160 and 300 mg/day) plus sorafenib, post-dose, read-out: median tmax
  Tmax: 1 to 2 h
[1]; oral, both galunisertib doses (160 and 300 mg/day) plus sorafenib, read-out: mean t1/2 (converted)
  half-life: ~4 h
[1]; po, 160 mg/day, Galunisertib 160 mg/day plus sorafenib, Cycle 1 Day 1, geometric mean (CV%), N 7, read-out: AUC(0-6)
  AUC(0-t): 2800 ng·h/mL
[1]; po, 160 mg/day, Galunisertib 160 mg/day plus sorafenib, Cycle 1 Day 1, median (range), N 7, read-out: tmax
  Tmax: 1.93 h
[1]; po, 160 mg/day, Galunisertib 160 mg/day plus sorafenib, Cycle 1 Day 1, plasma, N 7
  Cmax: 899 ng/mL
[1]; po, 160 mg/day, Galunisertib 160 mg/day plus sorafenib, Cycle 1 Day 14, geometric mean (CV%), N 7, read-out: AUC(0-6)
  AUC(0-t): 3670 ng·h/mL
[1]; po, 160 mg/day, Galunisertib 160 mg/day plus sorafenib, Cycle 1 Day 14, geometric mean (CV%), n = 6, read-out: AUC(0–24)
  AUC(0-t): 7170 ng·h/mL
[1]; po, 160 mg/day, Galunisertib 160 mg/day plus sorafenib, Cycle 1 Day 14, median (range), N 7, read-out: tmax
  Tmax: 1.85 h
[1]; po, 160 mg/day, Galunisertib 160 mg/day plus sorafenib, Cycle 1 Day 14, plasma, N 7
  Cmax: 1150 ng/mL
[1]; po, 300 mg/day, Galunisertib 300 mg/day plus sorafenib, Cycle 1 Day 1, geometric mean (CV%), N 7, read-out: AUC(0-6)
  AUC(0-t): 5040 ng·h/mL
[1]; po, 300 mg/day, Galunisertib 300 mg/day plus sorafenib, Cycle 1 Day 1, median (range), N 7, read-out: tmax
  Tmax: 0.93 h
[1]; po, 300 mg/day, Galunisertib 300 mg/day plus sorafenib, Cycle 1 Day 1, plasma, N 7
  Cmax: 1900 ng/mL
[1]; po, 300 mg/day, Galunisertib 300 mg/day plus sorafenib, Cycle 1 Day 14, geometric mean (CV%), N 4, read-out: AUC(0-6)
  AUC(0-t): 5570 ng·h/mL
[1]; po, 300 mg/day, Galunisertib 300 mg/day plus sorafenib, Cycle 1 Day 14, geometric mean (CV%), N 4, read-out: AUC(0–24)
  AUC(0-t): 10600 ng·h/mL
[1]; po, 300 mg/day, Galunisertib 300 mg/day plus sorafenib, Cycle 1 Day 14, median (range), N 4, read-out: tmax
  Tmax: 2.04 h
[1]; po, 300 mg/day, Galunisertib 300 mg/day plus sorafenib, Cycle 1 Day 14, plasma, N 4
  Cmax: 2000 ng/mL
[1]; [5]
  AUC(0-inf): 7870 ng·h/mL
  Vd/F: 62 L
[1]; po, Galunisertib 160 mg/day plus sorafenib, Cycle 1 Day 14, geometric mean (range), n = 3, read-out: t1/2 (converted)
  half-life: 4.24 h
[1]; [6]
  AUC(0-inf): 11100 ng·h/mL
  Vd/F: 78.1 L
[1]; po, Galunisertib 300 mg/day plus sorafenib, Cycle 1 Day 14, geometric mean (range), n = 3, read-out: t1/2 (converted)
  half-life: 4.01 h
[2]; AFP <1.5 ULN (part B), 90% CI 10.4–24.1
  median OS: 16.8 months
[2]; baseline AFP ≥1.5 ULN (part A), 90% CI 5.3–9.3
  median OS: 7.2 months
[2]; part A, 90% CI 1.4−2.9
  median time-to-progression (TTP): 2.7 months
[2]; part B, 90% CI 2.3–5.5
  median time-to-progression (TTP): 4.1 months
[3]
  recommended dose of galunisertib with confirmed tolerability: 150 mg twice daily

## CNC(=O)c1cc(Oc2ccc(NC(=O)Nc3ccc(Cl)c(C(F)(F)F)c3)cc2)ccn1 [sorafenib]
[1]; day 14 (with galunisertib) versus day 22 (sorafenib monotherapy), data not shown
  PK profile of sorafenib in combination with galunisertib: comparable to that of sorafenib administered alone
[4]
  median OS: 10.7 months

Reference: publication PMC6510840, “A phase 1b study of transforming growth factor-beta receptor I inhibitor galunisertib in combination with sorafenib in Japanese patients with unresectable hepatocellular carcinoma” (Investigational New Drugs, 2018)
